Reference: patent US5614548A, “Quaternary amine containing ether or ester lipid derivatives and therapeutic compositions” (priority 1994, dated 1997)

Assays:
[1] = system: KB cells; assay: Cytostatic activity on KB cells; format: cell-based; details: Homo sapiens; KB cells, after controls doubled three times; read-out: IC50 KB
Experimental: (§1) All cells were grown in Eagle's minimum essential medium supplemented with 10% fetal bovine serum with the exception of HL-60 and K562-4 cells which were grown in RPMI 1640 medium supplemented with 10% fetal bovine serum. The KB and MH1 C1 cells, from a human nasopharyngeal carcinoma and rat hepatoma, respectively, were from American Type Culture Collection. The ChaGo cells, a human lung carcinoma, was generously provided by Dr. A. H. Tashjian. The human promyeloblastic leukemia cells, K562-4 were kindly supplied by Dr. Bismarck Lozzio. HL-60 cells, a human promyelocytic leukemia, and P388 cells, a mouse leukemia, were obtained from Dr. Y.-C. Cheng. The 77 cells were put into culture by us by excising the 7777, Morris hepatoma from a rat graciously supplied by the late Dr. H. P. Morris.
(§2) Cells were transferred or removed from monolayers for counting after a one or two minute incubation with 0.02% sodium ethylenediamine tetraacetate in phosphate-buffered saline to dislodge the cells. Flasks were seeded at a density of 1×10^3 cells per cm^2 or 2×10^4 per milliliter for suspension cultures. The HL-60 and K562-4 suspension cultures were used about 24 hours after seeding. The compounds to be tested were diluted to various concentrations and added to the monolayer cultures. All of the test compounds were dissolved in 10% dimethyl sulfoxide (DMSO) at concentrations that would give a final DMSO concentration of 0.1%. Control flasks contained 0.1% DMSO. Control cell replication was followed until approximately three doublings had occurred, and then all of the treated cells were counted.
(§3) The KB cells represented cells with low alkyl cleavage activity (less than the detectable level of 0.1-0.2 units per milligram protein by our assay procedure) and the 77 cells represented cells similar to normal cells with relatively high alkyl cleavage activity (1.6 units per milligram of protein). Our value for the cleavage activity of cultured 77 cells agrees well with the value of 1.4 units per milligram of protein reported by Soodsma et al, Cancer Res. 30, 309 (1970), for freshly excised 7777 Morris hepatoma tissue. In further confirmation of our assay procedure, we obtained a value of 12.6±4.1 units per milligram of protein in excised rat liver compared to 7.3 units per milligram of protein in rat liver measured by Soodsma et al.

[2] = system: 77 cells; assay: Cytostatic activity on 77 cells; format: cell-based, rat; details: for IC50: 77 cells, after controls doubled three times; for 77/KB: ratio of IC50 values ± standard error of the quotient
Experimental: as §1, §2, §3

[3] = system: K562-4 cells; assay: Cytostatic activity on K562-4 cells; format: cell-based; details: Homo sapiens; K562-4 (printed X562-4)
Experimental: as §1, §2

[4] = system: HL-60 cells; assay: Cytostatic activity on HL-60 cells; format: cell-based; details: Homo sapiens
Experimental: as §1
as §2, with “The compounds to be tested were diluted to various concentrations and added to the monolayer cultures. All of the test compounds were dissolved in 10% dimethyl sulfoxide (DMSO) at concentrations that would give a final DMSO concentration of 0.1%. Control flasks contained 0.1% DMSO.” left out

[5] = system: P388 mouse leukemia cells; assay: In vivo anti-tumor activity, P388 mouse leukemia; design: species or system mouse (BDF1 female mice); details: for increased survival: days 1, 5, and 9
From the text: P388 mouse leukemia cells were transplanted by intraperitoneal injection of 1×10^6 cells into BDF1 female mice on day 0. Treatments were begun on day 1. Control mice received the vehicle for the test compounds. […]

[6] = system: KB cells; assay: Synergism with vincristine on KB cell number; format: cell-based, human
Experimental: as §1, §2
For example, 1 μM VIII reduced cell number to 45% of control and 0.004 μg per milliliter vincristine caused a reduction to 27% of control. Thus, the two agents together should have reduced cell number to 12% of control if they acted additively.

[7] = system: ChaGo cells; assay: Cytostatic activity on ChaGo cells; format: cell-based, human; details: Homo sapiens
Experimental: as §1, §2

[8] = system: P388 cells; assay: Cytostatic activity on P388 cells; format: cell-based; details: Mus musculus
Experimental: as §1
as §2, with “The compounds to be tested were diluted to various concentrations and added to the monolayer cultures. All of the test compounds were dissolved in 10% dimethyl sulfoxide (DMSO) at concentrations that would give a final DMSO concentration of 0.1%. Control flasks contained 0.1% DMSO.” left out

[9] = system: MH1 C1 cells; assay: Cytostatic activity on MH1 C1 cells; format: cell-based, rat
Experimental: as §1, §2

[10] = system: HIV-1; assay: HIV-1 plaque assay, inhibitor added 30 minutes before infection; format: cell-based, human immunodeficiency virus type 1 (HIV-1); details: HIV-1 plaque formation, Table 5
From the text: Dextran sulfate was used as a positive control. […] Plaques were counted at five days after infection.
By way of further background, in our assay HIV-1 syncytial plaques are seen as large, multicellular foci (10 to 25 nuclei/syncytium) that appear either brown and granular or clear. Since the number of HIV-1 syncytial plaques correlates with reverse transcriptase (RT) and p24 core antigen activity in the HIV-1 infected cell overlay fluids, the syncytial plaque assay can be used to quantify the amount of infectious virus. Reverse transcriptase activity was assayed according to a described procedure (B. J. Poeisz et al., Proc. Natl. Acad. Sci. (U.S.A.) […], 7415 (1980)). The activity of p24 core antigen induced by HIV-1 infection of CEM-SS cells was measured spectrophotometrically using the commercial Abbott EIA.
Compound E inhibited HIV-1 plaque count 43%, 83%, and 91% at concentrations of 0.2, 0.4, and 2.0 μM, respectively, compared to untreated controls. […] In other experiments addition of 0.2, 0.4 and 2.0 μM Compound E starting sixty minutes after HIV-1 infection inhibited HIV-1 plaque formation 28%, 59% and 97% respectively, compared to untreated controls.

[11] = system: HIV-1 binding to target T-cells; details: in words; cited from earlier work

**Q.** For `CCCCCCCCCCCCCCCCOCC[N+](C)(C)CCCO.[I-]` [VI, 2-hexadecyloxy-N,N-dimethyl-N-gamma-hydroxypropyl-1-ethyl ammonium iodide], which IC50 [1] is on record?
**A.** The IC50 was 0.23 ± 0.07 µM.

**Q.** And the IC50 [2]?
**A.** The IC50 was 2.05 ± 0.91 µM.

**Q.** And the 77/KB [2]?
**A.** Its 77/KB is 8.9 ± 4.79.

**Q.** What about the IC50 [3] of the same compound?
**A.** Its IC50 is 2.2 ± 0.41 µM.

**Q.** And the IC50 [4]?
**A.** The IC50 was 0.45 ± 0.011 µM.

**Q.** What about the increased survival ([5]; 50 mg/kg) of the same compound?
**A.** Its increased survival is 26%.

**Q.** And the reduced survival ([5]; 75 mg/kg on days 1 and 2)?
**A.** The reduced survival was 48%.

**Q.** What about the increased survival ([5]; 75 mg/kg) of the same compound?
**A.** Its increased survival is 48%.

**Q.** And the “in vivo activity against P388” value ([5]; in words)?
**A.** The value was “appeared to have in vivo activity against P388”.

**Q.** And the survival time ([5]; one 50 mg/kg dose on day 1)?
**A.** The survival time was “did not affect survival time”.

**Q.** What about the lethality ([5]; single 100 mg/kg dose on day 1) of the same compound?
**A.** Its lethality is “killed all the mice by day 2”.

**Q.** With `CCCCCCCCCCCCCCCCCCOCC[N+](C)(C)CCO.[I-]` [VIII, 2-octadecyloxy-N,N-dimethyl-N-β-hydroxyethyl-1-ethyl ammonium iodide] as the compound, how does the IC50 [1] read?
**A.** The IC50 was 0.3 ± 0.14 µM.

**Q.** And the IC50 [2]?
**A.** Its IC50 is 1.8 ± 0.81 µM.

**Q.** And the 77/KB [2]?
**A.** Its 77/KB is 5.8 ± 3.8.

**Q.** And the activity at 1 µM ([6]; Homo sapiens, 1 μM VIII, read-out: cell number, % of control)?
**A.** The activity at 1 µM was 45%.

**Q.** What about the synergism with vincristine ([6]; in words) of the same compound?
**A.** The synergism with vincristine was “acted synergistically with vincristine against KB cells”.

**Q.** What about the IC50 [7] of the same compound?
**A.** Its IC50 is 1 µM.

**Q.** And the IC50 [3]?
**A.** Its IC50 is 1.9 µM.

**Q.** And the IC50 [8]?
**A.** The IC50 was 0.42 µM.

**Q.** What about the IC50 ([9]; MH1 C1) of the same compound?
**A.** The IC50 was 7.7 µM.

**Q.** What about the “sensitivity of MH1 C1 cells relative to 77 cells” value ([9]; MH1 C1 vs 77 cells) of the same compound?
**A.** Its value is “two to three times less sensitive to growth inhibition than 77 cells”.

**Q.** What about the IC50 ([9]; Rattus norvegicus, MH1C1, MH1 C1) of the same compound?
**A.** The IC50 was 6.4 µM.

**Q.** For `CC[C@]1(O)C[C@H]2CN(CCc3c([nH]c4ccccc34)[C@@](C(=O)OC)(c3cc4c(cc3OC)N(C=O)[C@H]3[C@@](O)(C(=O)OC)[C@H](OC(C)=O)[C@]5(CC)C=CCN6CC[C@]43[C@@H]65)C2)C1` [vincristine, reference compound], which “cell number, % of control” value ([6]; 0.004 μg per milliliter vincristine) is on record?
**A.** Its value is 27%.

**Q.** For Dextran Sulfate [reference compound], which “Inhibition (%)” value ([10]; 1 μM) is on record?
**A.** The value was 91%.

**Q.** What about the “Inhibition (%)” value ([10]; 1 μM, listed as dextran sulfate) of the same compound?
**A.** Its value is 92%.

**Q.** And the “Inhibition (%)” value ([10]; 2 μM)?
**A.** The value was 100%.

**Q.** And the “Inhibition (%)” value ([10]; 10 μM)?
**A.** Its value is 100%.

**Q.** What about the “inhibition of HIV-1 binding to target T-cells” value [11] of the same compound?
**A.** Its value is “a known inhibitor of HIV-1 binding to target T-cells”.
